Data published in patent US11702422B2, “Imidazopyridazines as modulators of IL-17” (Janssen Pharmaceutica NV, priority 2020, dated 2023).

Columns and labels:
[1] = system: IL-17A-induced G-CSF production in human normal keratinocyte (NHK); assay: NHK Assay: IL-17A-induced G-CSF production in human normal keratinocytes; type: cell-based; conditions: Homo sapiens, Keratinocyte, 24 h, adult normal human keratinocytes, IL-17A 5 ng/mL, simple average if tested more than once
How it was run: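 HTRF read-out of supernatant G-CSF, quantified from a standard curve, gave IC50 values. Adult keratinocytes, 3000-4000 cells/well, received human IL-17A (5 ng/mL final) pre-mixed 1 h at rt with compound, in 5% FBS and 0.2% DMSO, 24 h at 37° C.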

[2] = molecular target: IL-17A(FLAG-Tagged): IL-17RA(His-Tagged) (Homo sapiens, UniProt Q16552, K93Q); assay: IL-17A(FLAG-Tagged): IL-17RA(His-Tagged) Binding Disruption Eu-HTRF Assay; conditions: IL-17A/IL-17RA binding disruption, simple average if tested more than once
How it was run: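 IC50 comes from a one-site competition fit of the HTRF 665/620 nm ratio. Compound dilutions (2-fold, 22 points) were held 1 h rt with FLAG-tagged IL-17A dimer, then His-tagged IL-17RA plus Eu-cryptate anti-FLAG and D2 anti-His antibodies were added for 2 h rt.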

Chain of UniProt Q16552 (Q16552 with tags, fused parts or gaps K93Q): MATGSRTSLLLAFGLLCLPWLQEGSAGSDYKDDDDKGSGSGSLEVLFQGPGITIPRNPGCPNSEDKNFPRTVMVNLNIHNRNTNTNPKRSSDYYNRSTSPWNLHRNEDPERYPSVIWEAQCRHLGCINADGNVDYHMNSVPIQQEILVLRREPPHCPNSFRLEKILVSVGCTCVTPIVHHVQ

SMILES	IC50 [1] [µM]	IC50 [2] [µM]
O=C(CCC(F)(F)F)N[C@@H](c1cnn2cc([C@@H](NC(=O)c3cnnn3CCF)C3CCC(F)(F)CC3)nc2c1)C1CC1 [Example 105, N—((S)-(7-((R)-Cyclopropyl(4,4,4-trifluorobutanamido)methyl)imidazo[1,2-b]pyridazin-2-yl)(4,4-difluorocyclohexyl)methyl)-1-(2-fluoroethyl)-1H-1,2,3-triazole-5-carboxamide]	0.55	0.11
CCn1ncnc1C(=O)N[C@H](c1cn2ncc([C@H](NC(=O)CCC(F)(F)F)C3CC3)cc2n1)C1CCC(F)(F)CC1 [Example 106, N—((S)-(7-((R)-Cyclopropyl(4,4,4-trifluorobutanamido)methyl)imidazo[1,2-b]pyridazin-2-yl)(4,4-difluorocyclohexyl)methyl)-1-ethyl-1H-1,2,4-triazole-5-carboxamide]	0.83	0.13
O=C(CCC(F)(F)F)N[C@@H](c1cnn2cc([C@@H](NC(=O)c3cnn(CCF)n3)C3CCC(F)(F)CC3)nc2c1)C1CC1 [Example 107, N—((S)-(7-((R)-Cyclopropyl(4,4,4-trifluorobutanamido)methyl)imidazo[1,2-b]pyridazin-2-yl)(4,4-difluorocyclohexyl)methyl)-2-(2-fluoroethyl)-2H-1,2,3-triazole-4-carboxamide]	0.97	0.15
O=C(CCC(F)(F)F)N[C@@H](c1cnn2cc([C@@H](NC(=O)c3nnn(CC4CC4)c3C(F)(F)F)C3CCC(F)(F)CC3)nc2c1)C1CC1 [Example 108, N—((S)-(7-((R)-Cyclopropyl(4,4,4-trifluorobutanamido)methyl)imidazo[1,2-b]pyridazin-2-yl)(4,4-difluorocyclohexyl)methyl)-1-(cyclopropylmethyl)-5-(trifluoromethyl)-1H-1,2,3-triazole-4-carboxamide]	> 20	0.91
O=C(CCC(F)(F)F)N[C@@H](c1cnn2cc([C@@H](NC(=O)c3nnn(CC(F)F)c3C(F)(F)F)C3CCC(F)(F)CC3)nc2c1)C1CC1 [Example 109, N—((S)-(7-((R)-Cyclopropyl(4,4,4-trifluorobutanamido)methyl)imidazo[1,2-b]pyridazin-2-yl)(4,4-difluorocyclohexyl)methyl)-1-(2,2-difluoroethyl)-5-(trifluoromethyl)-1H-1,2,3-triazole-4-carboxamide]	20	0.44
O=C(CCC(F)(F)F)N[C@@H](c1cnn2cc([C@@H](NC(=O)c3nnn(C4CC4)c3C(F)F)C3CCC(F)(F)CC3)nc2c1)C1CC1 [Example 110, 1-Cyclopropyl-N—((S)-(7-((R)-cyclopropyl(4,4,4-trifluorobutanamido)methyl)imidazo[1,2-b]pyridazin-2-yl)(4,4-difluorocyclohexyl)methyl)-5-(difluoromethyl)-1H-1,2,3-triazole-4-carboxamide]	> 20	0.41
CC(C)n1ncc(F)c1C(=O)N[C@H](c1cn2ncc([C@H](NC(=O)CCC(F)(F)F)C3CC3)cc2n1)C1CCC(F)(F)CC1 [Example 111, N—((S)-(7-((R)-Cyclopropyl(4,4,4-trifluorobutanamido)methyl)imidazo[1,2-b]pyridazin-2-yl)(4,4-difluorocyclohexyl)methyl)-4-fluoro-1-isopropyl-1H-pyrazole-5-carboxamide]	0.41	0.052
O=C(CCC(F)(F)F)N[C@@H](c1cnn2cc([C@@H](NC(=O)c3cnnn3CCCF)C3CCC(F)(F)CC3)nc2c1)C1CC1 [Example 112, N—((S)-(7-((R)-Cyclopropyl(4,4,4-trifluorobutanamido)methyl)imidazo[1,2-b]pyridazin-2-yl)(4,4-difluorocyclohexyl)methyl)-1-(3-fluoropropyl)-1H-1,2,3-triazole-5-carboxamide]	0.16	0.12
O=C(CCC(F)(F)F)N[C@@H](c1cnn2cc([C@@H](NC(=O)c3cnn(CCCF)n3)C3CCC(F)(F)CC3)nc2c1)C1CC1 [Example 113, N—((S)-(7-((R)-Cyclopropyl(4,4,4-trifluorobutanamido)methyl)imidazo[1,2-b]pyridazin-2-yl)(4,4-difluorocyclohexyl)methyl)-2-(3-fluoropropyl)-2H-1,2,3-triazole-4-carboxamide]	0.4	0.43
CC(=O)N(C)CCn1ncc(C(=O)N[C@H](c2cn3ncc([C@H](NC(=O)CCC(F)(F)F)C4CC4)cc3n2)C2CCC(F)(F)CC2)n1 [Example 114, N—((S)-(7-((R)-Cyclopropyl(4,4,4-trifluorobutanamido)methyl)imidazo[1,2-b]pyridazin-2-yl)(4,4-difluorocyclohexyl)methyl)-2-(2-(N-methylacetamido)ethyl)-2H-1,2,3-triazole-4-carboxamide]	0.37	2.1
CC(C)n1nccc1C(=O)N[C@H](c1nc2cc([C@H](NC(=O)CCC(F)(F)F)C3CC3)cnn2c1F)C1CCC(F)(F)CC1 [Example 118, N—((S)-(7-((R)-Cyclopropyl(4,4,4-trifluorobutanamido)methyl)-3-fluoroimidazo[1,2-b]pyridazin-2-yl)(4,4-difluorocyclohexyl)methyl)-1-isopropyl-1H-pyrazole-5-carboxamide]	0.37	0.25
CC(C)n1nccc1C(=O)N[C@H](c1cn2ncc([C@H](NC(=O)CC3CC(F)(F)C3)C3CC3)cc2n1)C1CCC(F)(F)CC1 [Example 119, N—((S)-(7-((R)-Cyclopropyl(2-(3,3-difluorocyclobutyl)acetamido)methyl)imidazo[1,2-b]pyridazin-2-yl)(4,4-difluorocyclohexyl)methyl)-1-isopropyl-1H-pyrazole-5-carboxamide]	0.036	0.096
Cc1nocc1C(=O)N[C@H](c1cn2ncc([C@H](NC(=O)CC3CC(F)(F)C3)C3CC3)cc2n1)C1CCC(F)(F)CC1 [Example 120, N—((S)-(7-((R)-Cyclopropyl(2-(3,3-difluorocyclobutyl)acetamido)methyl)imidazo[1,2-b]pyridazin-2-yl)(4,4-difluorocyclohexyl)methyl)-3-methylisoxazole-4-carboxamide]	0.15	0.048
O=C(CC1CC(F)(F)C1)N[C@@H](c1cnn2cc([C@@H](NC(=O)c3conc3C3CC3)C3CCC(F)(F)CC3)nc2c1)C1CC1 [Example 125, 3-Cyclopropyl-N—((S)-(7-((R)-cyclopropyl(2-(3,3-difluorocyclobutyl)acetamido)methyl)imidazo[1,2-b]pyridazin-2-yl)(4,4-difluorocyclohexyl)methyl)isoxazole-4-carboxamide]	0.078	0.037
CCn1nccc1C(=O)N[C@H](c1cn2ncc([C@H](NC(=O)CC3CC(F)(F)C3)C3CC3)cc2n1)C1CCC(F)(F)CC1 [Example 126, N—((S)-(7-((R)-Cyclopropyl(2-(3,3-difluorocyclobutyl)acetamido)methyl)imidazo[1,2-b]pyridazin-2-yl)(4,4-difluorocyclohexyl)methyl)-1-ethyl-1H-pyrazole-5-carboxamide]	0.084	0.046
CCn1nccc1C(=O)N[C@H](c1cn2ncc([C@H](NC(=O)CCC(F)(F)F)C3CC3)cc2n1)C1CCC(F)(F)CC1 [Example 127, N—((S)-(7-((R)-Cyclopropyl(4,4,4-trifluorobutanamido)methyl)imidazo[1,2-b]pyridazin-2-yl)(4,4-difluorocyclohexyl)methyl)-1-ethyl-1H-pyrazole-5-carboxamide]	0.1	0.04
